Results on 22 compounds are retold here after PubChem BioAssay AID256 (DTP/NCI, 2004).

Toxic doses and inconclusive results are not listed.

The subject of this experiment is CD2F1 mice, L1210 leukemia ip, survival T/C. The experiment in a line: NCI In Vivo Anticancer Drug Screen. Data for tumor model L1210 Leukemia (intraperitoneal) in CD2F1 (CDF1) mice. As to conditions: higher = longer survival. In short, it runs like this: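 In this screen, transplantable tumors were grown in mice given either the compound or its vehicle. Results were expressed as the treated measurement relative to the control measurement.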

The mark [1] stands for this setting: endpoint: mean survival time, dose: 100.0 mg/kg/injection, schedule: Q04DX003 (ip), vehicle: saline with Tween-80.
The mark [2] stands for this setting: endpoint: mean survival time, dose: 200.0 mg/kg/injection, schedule: Q04DX003 (ip), vehicle: saline with Tween-80.
Setting [3] is: endpoint: mean survival time, dose: 400.0 mg/kg/injection, schedule: Q04DX003 (ip), vehicle: saline with Tween-80.
Setting [4] is: endpoint: mean survival time, dose: 50.0 mg/kg/injection, schedule: Q04DX002 (ip), vehicle: saline with Tween-80.
Setting [5] is: endpoint: mean survival time, dose: 100.0 mg/kg/injection, schedule: Q04DX002 (ip), vehicle: saline with Tween-80.
[6] abbreviates: endpoint: mean survival time, dose: 200.0 mg/kg/injection, schedule: Q04DX002 (ip), vehicle: saline with Tween-80.
Where [7] appears, read: endpoint: mean survival time, dose: 50.0 mg/kg/injection, schedule: Q01DX009 (ip), vehicle: saline with Tween-80.
Setting [8] is: endpoint: mean survival time, dose: 100.0 mg/kg/injection, schedule: Q01DX009 (ip), vehicle: saline with Tween-80.
[9] abbreviates: endpoint: mean survival time, dose: 100.0 mg/kg/injection, schedule: Q04DX003 (ip), vehicle: saline sonified.
[10] abbreviates: endpoint: mean survival time, dose: 400.0 mg/kg/injection, schedule: Q01DX009 (ip), vehicle: saline with Tween-80.
Where [11] appears, read: endpoint: mean survival time, dose: 200.0 mg/kg/injection, schedule: Q01DX009 (ip), vehicle: saline with Tween-80.

For `CC(=O)OC(c1ccccc1)C(OC(C)=O)c1ccccc1` (stereo not drawn), the T/C runs as follows: (endpoint: mean survival time, dose: 75.0 mg/kg/injection, schedule: Q01DX001 (ip), vehicle: other) 104 % of control; (endpoint: mean survival time, dose: 150.0 mg/kg/injection, schedule: Q01DX001 (ip), vehicle: other) 102 % of control; (endpoint: mean survival time, dose: 300.0 mg/kg/injection, schedule: Q01DX001 (ip), vehicle: other) 88 % of control.
For the compound `O=C(OC(CC[P+](c1ccccc1)(c1ccccc1)c1ccccc1)(C(=O)c1ccccc1)c1ccccc1)c1ccccc1` (stereo not drawn), the T/C (endpoint: mean survival time, dose: 0.38 mg/kg/injection, schedule: Q01DX009 (ip), vehicle: saline) was 104 % of control; the T/C (endpoint: mean survival time, dose: 0.75 mg/kg/injection, schedule: Q01DX009 (ip), vehicle: saline) is 105 % of control; the T/C (endpoint: mean survival time, dose: 1.5 mg/kg/injection, schedule: Q01DX009 (ip), vehicle: saline) was 93 % of control.
For the compound `COc1ccc(OC)c(C(O)CCc2cccc(N)c2)c1` (stereo not drawn), the T/C is, setting by setting: (endpoint: mean survival time, dose: 100.0 mg/kg/injection, schedule: Q04DX002 (ip), vehicle: Klucel (hydroxypropylcellulose) (HPC)) 93 % of control; (endpoint: mean survival time, dose: 200.0 mg/kg/injection, schedule: Q04DX002 (ip), vehicle: Klucel (hydroxypropylcellulose) (HPC)) 93 % of control; (endpoint: mean survival time, dose: 400.0 mg/kg/injection, schedule: Q04DX002 (ip), vehicle: Klucel (hydroxypropylcellulose) (HPC)) 97 % of control.
Consider `COc1ccc(C(=O)CC(C#N)c2ccc3c(c2)OCO3)cc1OC` (stereo not drawn), for which the T/C is 93 % of control under setting [1], 91 % of control under setting [2] and 93 % of control under setting [3].
In the case of `CN1CC2C3CCC(C3)C2(C)C1O` (stereo not drawn), the T/C is 103 % of control under setting [4], 103 % of control under setting [5] and 87 % of control under setting [6].
`O=C(O)c1cccc2ccc(Br)cc12`: the T/C runs as follows: (endpoint: median survival time, dose: 50.0 mg/kg/injection, schedule: Q04DX002 (ip), vehicle: saline with Tween-80) 100 % of control; (endpoint: median survival time, dose: 100.0 mg/kg/injection, schedule: Q04DX002 (ip), vehicle: saline with Tween-80) 100 % of control; (endpoint: median survival time, dose: 200.0 mg/kg/injection, schedule: Q04DX002 (ip), vehicle: saline with Tween-80) 111 % of control.
In the case of `C[N+](C)(C)CCO`, the T/C was 96 % of control (endpoint: mean survival time, dose: 100.0 mg/kg/injection, schedule: Q01DX009 (ip), vehicle: saline); 102 % of control (endpoint: mean survival time, dose: 200.0 mg/kg/injection, schedule: Q01DX009 (ip), vehicle: saline); 90 % of control (endpoint: mean survival time, dose: 400.0 mg/kg/injection, schedule: Q01DX009 (ip), vehicle: saline).
As for `CN(C)CCN(Cc1ccc(Cl)cc1)c1ccccn1`, the T/C was 95 % of control (endpoint: mean survival time, dose: 3.13 mg/kg/injection, schedule: Q01DX009 (ip), vehicle: saline with Tween-80) and 109 % of control (endpoint: mean survival time, dose: 6.25 mg/kg/injection, schedule: Q01DX009 (ip), vehicle: saline with Tween-80).
For `CN(C)S(=O)(=O)c1ccccc1C(O)(c1ccccc1)c1ccccc1` (tested in a mixture with another compound), the T/C runs as follows: under setting [1], 92 % of control; under setting [2], 87 % of control; under setting [3], 98 % of control.
As for `O=C(c1ccccc1)C1C(C(=O)c2ccccc2)C1c1ccccc1` (stereo not drawn), the T/C by setting is: (endpoint: mean survival time, dose: 100.0 mg/kg/injection, schedule: Q01DX001 (ip), vehicle: saline with Tween-80) 87 % of control; (endpoint: mean survival time, dose: 200.0 mg/kg/injection, schedule: Q01DX001 (ip), vehicle: saline with Tween-80) 90 % of control; (endpoint: mean survival time, dose: 400.0 mg/kg/injection, schedule: Q01DX001 (ip), vehicle: saline with Tween-80) 93 % of control.
As to `[Cl][Pt]([Cl])[Cl].[NH-]C1CN2CCC1CC2` (stereo not drawn), the T/C (endpoint: mean survival time, dose: 2.5 mg/kg/injection, schedule: Q04DX003 (ip), vehicle: saline with Tween-80) was 119 % of control and the T/C (endpoint: mean survival time, dose: 5.0 mg/kg/injection, schedule: Q04DX003 (ip), vehicle: saline with Tween-80) is 122 % of control.
On to `CC(C)(C)C1SCC(O)CS1` (stereo not drawn), for which the T/C is, setting by setting: (endpoint: mean survival time, dose: 12.5 mg/kg/injection, schedule: Q04DX002 (ip), vehicle: saline with Tween-80) 105 % of control; (endpoint: mean survival time, dose: 25.0 mg/kg/injection, schedule: Q04DX002 (ip), vehicle: saline with Tween-80) 97 % of control; under setting [4], 97 % of control.
Turning to `CN(C)c1ccc(/C=C2N=C(/C=C\c3ccccc3)OC\2=O)cc1`, the T/C under setting [5] was 98 % of control; the T/C under setting [6] was 94 % of control; the T/C (endpoint: mean survival time, dose: 400.0 mg/kg/injection, schedule: Q04DX002 (ip), vehicle: saline with Tween-80) is 105 % of control.
`CC(=O)C1CCC2c3cc4c(c(C)c3CCC12C)CCC(OC(=O)C1CCCCC1)C4` (stereo not drawn): the T/C is 101 % of control under setting [1], 101 % of control under setting [2] and 104 % of control under setting [3].
On to `COc1cc(C2c3cc4c(cc3C(O)C(CO)C2CO)OCO4)cc(OC)c1OC` (stereo not drawn), for which the T/C reads like this: (endpoint: mean survival time, dose: 12.5 mg/kg/injection, schedule: Q01DX009 (ip), vehicle: saline with Tween-80) 97 % of control; (endpoint: mean survival time, dose: 25.0 mg/kg/injection, schedule: Q01DX009 (ip), vehicle: saline with Tween-80) 97 % of control; under setting [7], 102 % of control; under setting [8], 106 % of control; under setting [9], 107 % of control; (endpoint: mean survival time, dose: 150.0 mg/kg/injection, schedule: Q04DX003 (ip), vehicle: saline sonified) 114 % of control. In addition, the T/C is, setting by setting: (endpoint: mean survival time, dose: 225.0 mg/kg/injection, schedule: Q04DX003 (ip), vehicle: saline sonified) 108 % of control; under setting [10], 122 % of control.
As for `O=C1N(O)C2(CCCCC2)/C(=N/O)C12CCCCC2`, the T/C runs as follows: (endpoint: mean survival time, dose: 75.0 mg/kg/injection, schedule: Q01DX001 (ip), vehicle: saline) 100 % of control; (endpoint: mean survival time, dose: 150.0 mg/kg/injection, schedule: Q01DX001 (ip), vehicle: saline) 94 % of control; (endpoint: mean survival time, dose: 300.0 mg/kg/injection, schedule: Q01DX001 (ip), vehicle: saline) 94 % of control.
Turning to `Cc1cn(C2OC3COC2C3O)c(=O)[nH]c1=O` (stereo not drawn), the T/C is, setting by setting: (endpoint: median survival time, dose: 12.5 mg/kg/injection, schedule: Q01DX005 (ip), vehicle: saline with Tween-80) 97 % of control; (endpoint: median survival time, dose: 25.0 mg/kg/injection, schedule: Q01DX005 (ip), vehicle: saline with Tween-80) 97 % of control; (endpoint: median survival time, dose: 50.0 mg/kg/injection, schedule: Q01DX005 (ip), vehicle: saline with Tween-80) 94 % of control; (endpoint: median survival time, dose: 100.0 mg/kg/injection, schedule: Q01DX005 (ip), vehicle: saline with Tween-80) 102 % of control; (endpoint: median survival time, dose: 200.0 mg/kg/injection, schedule: Q01DX005 (ip), vehicle: saline with Tween-80) 105 % of control.
For `O=S1(=O)CC=CC1`, the T/C reads like this: under setting [8], 98 % of control; under setting [9], 103 % of control; under setting [11], 101 % of control; (endpoint: mean survival time, dose: 200.0 mg/kg/injection, schedule: Q04DX003 (ip), vehicle: saline sonified) 106 % of control; under setting [10], 101 % of control; (endpoint: mean survival time, dose: 400.0 mg/kg/injection, schedule: Q04DX003 (ip), vehicle: saline sonified) 95 % of control.
In the case of `CC[n+]1ccc(Nc2ccc(NC(=O)c3ccc(Nc4cc[n+](CC)c5ccc(N)cc45)cc3)cc2)cc1`, the T/C by setting is: (endpoint: mean survival time, dose: 0.25 mg/kg/injection, schedule: Q01DX009 (ip), vehicle: saline) 109 % of control; (endpoint: mean survival time, dose: 0.5 mg/kg/injection, schedule: Q01DX009 (ip), vehicle: water) 153 % of control; (endpoint: mean survival time, dose: 1.0 mg/kg/injection, schedule: Q01DX009 (ip), vehicle: saline) 154 % of control; (endpoint: mean survival time, dose: 1.0 mg/kg/injection, schedule: Q01DX009 (ip), vehicle: water) 228 % of control; (endpoint: mean survival time, dose: 2.0 mg/kg/injection, schedule: Q01DX009 (ip), vehicle: saline) 243 % of control; (endpoint: mean survival time, dose: 2.0 mg/kg/injection, schedule: Q01DX009 (ip), vehicle: water) 224 % of control. Besides, the T/C (endpoint: mean survival time, dose: 4.0 mg/kg/injection, schedule: Q01DX009 (ip), vehicle: water) was 115 % of control.
As to `C=C1c2ccccc2C=NN1c1ccccc1`, the T/C was 94 % of control (endpoint: mean survival time, dose: 100.0 mg/kg/injection, schedule: Q01DX001 (ip), vehicle: other); 88 % of control (endpoint: mean survival time, dose: 200.0 mg/kg/injection, schedule: Q01DX001 (ip), vehicle: other); 92 % of control (endpoint: mean survival time, dose: 400.0 mg/kg/injection, schedule: Q01DX001 (ip), vehicle: other).
`CC1(c2ccc(O)cc2)CCC(C(C)(C)c2ccc(O)cc2)CC1` (stereo not drawn): the T/C is, setting by setting: under setting [1], 92 % of control; under setting [2], 90 % of control; under setting [3], 90 % of control.
Take `COc1ccc(OCCOC(=O)Nc2ccc(Cl)cc2C)cc1`: the T/C runs as follows: under setting [7], 90 % of control; under setting [8], 96 % of control; under setting [11], 100 % of control.
